Patent US7608577B2, “Peptidyl ketones as inhibitors of DPIV” (OSI Pharmaceuticals, Inc., priority 2001, dated 2009)

How the values were obtained:
porcine DPIV = porcine DPIV (Sus scrofa, UniProt P22411); experiment: Determination of IC50 values against DPIV; format: biochemical; conditions: Gly-Pro-pNA 0.4 mM, APN, 30° C., HEPES pH7.6, read-out: IC50
Description: 100 μl inhibitor stock solution was mixed with 100 μl buffer (HEPES pH7.6) and 20 μl diluted porcine DPIV and preincubated at 30° C. Reaction was started by addition of a mixture of 50 μl substrate (Gly-Pro-pNA, final concentration 0.4 mM) and 2 μl APN stock solution. Formation of the product pNA was measured at 405 nm and 30° C. over 10 min using the HTS 7000Plus plate reader (Perkin Elmer) and slopes were calculated. The final inhibitor concentrations ranged between 1 mM and 30 nM. For calculation of IC50 GraFit 4.0.13 (Erithacus Software) was used.

plasma DPIV activity = target: T1, plasma DPIV activity (Rattus norvegicus, UniProt P14740); experiment: DPIV inhibiting activity after intravasal and oral administration to Wistar rats; format: in vivo; conditions: 100 mg/kg; for In vivo DPIV-inhibition at tmax, i.v.: intra-vasal (intra-arterial); for In vivo DPIV-inhibition at tmax, p.o.: oral
T1 construct: from tissue; host or cells: plasma of Wistar rats
Description: Male Wistar rats (Shoe: Wist(Sho)) with a body weight ranging between 250 and 350 g were purchased from Tierzucht Schönwalde (Schönwalde, Germany).
Animals were single-caged under conventional conditions with controlled temperature (22±2° C.) on a 12/12 hours light/dark cycle (light on at 06:00 AM). Standard pelleted chow (ssniff® Soest, Germany) and tap water acidified with HCl were allowed ad libitum.
After ≧one week of adaptation at the housing conditions, catheters were implanted into the carotid artery of Wistar rats under general anaesthesia (i.p. injection of 0.25 ml/kg b.w. ROMPUN® [2%], BayerVital, Germany and 0.5 ml/kg b.w. Ketamin 10, Atarost GmbH & Co., Twistringen, Germany). The animals were allowed to recover for one week. The catheters were flushed with heparin-saline (100 IU/ml) three times per week. In case of catheter dysfunction, a second catheter was inserted into the contralateral carotid artery of the respective rat. After one week of recovery from surgery, this animal was reintegrated into the study. In case of dysfunction of the second catheter, the animal was withdrawn from the study. A new animal was recruited and the experiments were continued in the planned sequence, beginning at least 7 days after catheter implantation.
Rats with intact catheter function were administered placebo (1 ml saline, 0.154 mol/l) or test compound via the oral and the intra-vasal (intra-arterial) route. After overnight fasting, 100 μl samples of heparinised arterial blood were collected at −30, −5, and 0 min. The test substance was dissolved freshly in 1.0 ml saline (0.154 mol/l) and was administered at 0 min either orally via a feeding tube (75 mm; Fine Science Tools, Heidelberg, Germany) or via the intra-vasal route. In the case of oral administration, an additional volume of 1 ml saline was injected into the arterial catheter. In the case of intra-arterial administration, the catheter was immediately flushed with 30 μl saline and an additional 1 ml of saline was given orally via the feeding tube.
After application of placebo or the test substances, arterial blood samples were taken at 2.5, 5, 7.5, 10, 15, 20, 40, 60 and 120 min from the carotid catheter of the conscious unrestrained rats. All blood samples were collected into ice cooled Eppendorf tubes (Eppendorf-Netheler-Hinz, Hamburg, Germany) filled with 10 μl 1M sodium citrate buffer (pH 3.0) for plasma DPIV activity measurement. Eppendorf tubes were centrifuged immediately (12000 rpm for 2 min, Hettich Zentrifuge EBA 12, Tuttlingen; Germany): The plasma fractions were stored on ice until analysis or were frozen at −20° C. until analysis. […]
Statistical evaluations and graphics were performed with PRISM® 3.02 (GraphPad Software, Inc.). All parameters were analysed in a descriptive manner including mean and SD.

[1] = target: T2, Dipeptidyl peptidase I (DP I, cathepsin C) (Rattus norvegicus, UniProt P80067); experiment: Cross reacting enzymes: dipeptidyl peptidase I; format: biochemical; conditions: MES buffer pH5.6, 30° C.
T2 construct: purchased Qiagen GmbH, Hilden, Germany
T2 sequence (P80067 25-462): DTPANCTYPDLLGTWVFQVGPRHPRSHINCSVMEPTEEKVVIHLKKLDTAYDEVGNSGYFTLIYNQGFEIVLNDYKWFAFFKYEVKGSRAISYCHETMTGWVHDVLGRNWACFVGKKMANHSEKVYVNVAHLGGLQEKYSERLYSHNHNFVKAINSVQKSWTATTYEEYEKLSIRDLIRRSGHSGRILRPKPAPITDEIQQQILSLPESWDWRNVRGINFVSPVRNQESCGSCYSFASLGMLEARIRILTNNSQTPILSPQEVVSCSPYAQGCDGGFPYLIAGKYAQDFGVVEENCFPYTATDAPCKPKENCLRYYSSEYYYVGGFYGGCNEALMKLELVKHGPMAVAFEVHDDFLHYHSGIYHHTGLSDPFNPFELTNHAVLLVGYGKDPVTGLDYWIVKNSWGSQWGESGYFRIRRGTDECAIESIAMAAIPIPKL
Description: DP I or cathepsin C is a lysosomal cysteine protease which cleaves off dipeptides from the N-terminus of their substrates (Gutman, H. R. & Fruton, J. S., 1948, J. Biol: Chem., 174, 851-858). It is classified as a cysteine protease. The enzyme used was purchased from Qiagen (Qiagen GmbH, Hilden, Germany). In order to get a fully active enzyme, the enzyme was diluted 1000 fold in MES buffer pH5.6 (40 mM MES, 4 mM DTT, 4 mM KCl, 2 mM EDTA, 0.015% Brij) and pre-incubated for 30 min at 30° C.
50 μl solution with the test compounds in a concentration range of 1*10^−5 M-1*10^−7 M was admixed with 110 μl buffer-enzyme-mixture. The assay mixture was pre-incubated at 30° C. for 15 min. After pre-incubation, 100 μl histidylseryl-βnitroaniline (2*10^−5M) was added and measurement of yellow color development due to β-nitroaniline release was performed at 30° C. and […] for 10 min, using a plate reader (HTS7000 plus, Applied Biosystems, Weiterstadt, Germany).
The IC 50-values were calculated using Graphit 4.0.15 (Erithacus Software, Ltd., UK).

T1 sequence (P14740 38-767 limits assumed): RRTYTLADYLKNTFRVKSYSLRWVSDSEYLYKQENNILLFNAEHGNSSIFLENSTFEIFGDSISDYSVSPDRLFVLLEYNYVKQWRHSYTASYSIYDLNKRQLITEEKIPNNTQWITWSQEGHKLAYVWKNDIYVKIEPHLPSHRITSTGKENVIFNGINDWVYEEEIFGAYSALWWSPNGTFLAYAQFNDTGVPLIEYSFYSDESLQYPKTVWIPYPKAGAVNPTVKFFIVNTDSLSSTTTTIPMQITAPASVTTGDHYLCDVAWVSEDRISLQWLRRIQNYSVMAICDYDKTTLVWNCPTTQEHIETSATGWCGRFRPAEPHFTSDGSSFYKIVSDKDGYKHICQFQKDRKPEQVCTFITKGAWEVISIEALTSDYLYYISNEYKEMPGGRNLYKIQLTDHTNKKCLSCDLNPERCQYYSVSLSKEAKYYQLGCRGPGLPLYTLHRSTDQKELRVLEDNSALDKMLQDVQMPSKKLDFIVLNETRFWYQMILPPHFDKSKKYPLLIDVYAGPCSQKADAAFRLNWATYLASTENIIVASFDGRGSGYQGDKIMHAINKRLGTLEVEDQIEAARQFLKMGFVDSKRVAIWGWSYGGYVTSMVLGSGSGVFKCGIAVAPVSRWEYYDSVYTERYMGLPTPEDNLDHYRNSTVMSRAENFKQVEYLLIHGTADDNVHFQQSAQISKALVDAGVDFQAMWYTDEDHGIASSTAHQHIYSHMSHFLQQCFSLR
Sequence of porcine DPIV (P22411 whole entry): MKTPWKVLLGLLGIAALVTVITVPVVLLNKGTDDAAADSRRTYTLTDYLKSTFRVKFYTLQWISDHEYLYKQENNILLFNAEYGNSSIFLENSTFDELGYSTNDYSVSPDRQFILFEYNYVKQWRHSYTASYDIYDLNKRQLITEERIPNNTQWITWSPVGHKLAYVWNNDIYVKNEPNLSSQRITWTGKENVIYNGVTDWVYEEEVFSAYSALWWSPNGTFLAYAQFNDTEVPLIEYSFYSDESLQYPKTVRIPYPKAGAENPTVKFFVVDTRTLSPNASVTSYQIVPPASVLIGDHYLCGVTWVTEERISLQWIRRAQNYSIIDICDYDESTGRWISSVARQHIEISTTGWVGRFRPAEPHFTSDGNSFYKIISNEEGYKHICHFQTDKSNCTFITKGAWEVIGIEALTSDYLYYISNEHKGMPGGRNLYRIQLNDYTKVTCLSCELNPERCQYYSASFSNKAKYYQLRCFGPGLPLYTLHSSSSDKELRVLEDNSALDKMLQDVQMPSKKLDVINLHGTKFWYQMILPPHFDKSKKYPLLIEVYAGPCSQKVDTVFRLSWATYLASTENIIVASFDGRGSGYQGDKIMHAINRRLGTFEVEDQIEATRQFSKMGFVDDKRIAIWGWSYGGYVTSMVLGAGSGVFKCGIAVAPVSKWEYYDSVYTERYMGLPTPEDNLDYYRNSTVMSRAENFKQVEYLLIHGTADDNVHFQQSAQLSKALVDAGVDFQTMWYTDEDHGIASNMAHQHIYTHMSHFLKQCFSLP

IC50 (porcine DPIV) [µM] | In vivo DPIV-inhibition at tmax, i.v. (plasma DPIV activity) [%] | In vivo DPIV-inhibition at tmax, p.o. (plasma DPIV activity) [%] | IC50 [1] [µM] | DP I IC50 [1] | SMILES
0.0102 | 89 | 87 | 120 |  | Br.CC(=O)OCC(=O)[C@@H]1CCCN1C(=O)[C@@H](NC(=O)[C@H](C)N)C(C)C [H-Ala-Val-Pro-CH2O—CO—CH3*HBr, 2-[(Acetyloxy-methyl)carbonyl]-1-N-[(L)-Alanyl-(L)-Valinyl]-(2S)-pyrrolidine hydrobromide]
 | 95 | 68 | 316 |  | Br.CC(C)[C@H](NC(=O)[C@H](C)N)C(=O)N1CCC[C@H]1C(=O)COC(=O)c1ccccc1 [H-Ala-Val-Pro-CO—CH2O—CO—Ph*HBr, 2-[(Benzoyloxy-methyl)carbonyl]-1-N-[{(L)-Alanyl}-(L)-Valinyl]-(2S)-pyrrolidine hydrobromide]
0.579 |  |  |  | no inhibition | Br.CC(=O)[C@@H]1CCCN1C(=O)[C@@H](NC(=O)[C@H](C)N)C(C)C [H-Ala-Val-Pro-Me*HBr, 2-Methylcarbonyl-1-N-[(L)-Alanyl-(L)-Valinyl]-(2S)-pyrrolidine hydrobromide]
